According to ChEMBL document CHEMBL5523701, “Structure-based discovery of small molecule inhibitors of FKBP51-Hsp90 protein-protein interaction” (Eur J Med Chem, 2024):
pIC50: −log10 of the molar value.

Key:
[1] = target: T1, Aryl-hydrocarbon-interacting protein-like 1 (Homo sapiens, UniProt Q9NZN9); experiment: Inhibition of GST-tagged human AIPL1 expressed in Escherichia coli BL21 (DE3) using NH2-EDASRMEEVD-COOH peptide as substrate preincubated for 15 mins followed by substrate addition measured after 15 mins by Alpha Screen assay
T1 sequence (Q9NZN9 whole entry): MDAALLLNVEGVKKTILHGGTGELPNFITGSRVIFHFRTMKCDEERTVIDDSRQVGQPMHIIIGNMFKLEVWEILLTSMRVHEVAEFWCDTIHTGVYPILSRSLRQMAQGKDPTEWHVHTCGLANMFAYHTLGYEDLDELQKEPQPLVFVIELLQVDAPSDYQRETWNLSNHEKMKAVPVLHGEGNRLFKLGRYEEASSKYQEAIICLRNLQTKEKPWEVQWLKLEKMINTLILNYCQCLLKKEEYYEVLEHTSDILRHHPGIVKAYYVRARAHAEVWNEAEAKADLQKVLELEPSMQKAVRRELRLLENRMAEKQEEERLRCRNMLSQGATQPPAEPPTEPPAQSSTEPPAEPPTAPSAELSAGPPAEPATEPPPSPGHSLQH

[2] = Solubility of compound in cell culture media upto 30 uM; assay type: physicochemical

Cc1sc(NC(=O)CCCC(=O)Nc2sc(C)c(C)c2C(N)=O)c(C(N)=O)c1C
pIC50 [1]: 5.70

COC(=O)c1c(NC(=O)CSc2nnc(-c3ccco3)c(-c3ccco3)n2)sc(C)c1C
solubility [2]: Soluble
